Laboratory results: patent US10221163B2 (priority 2015, dated 2019)
pIC50: −log10 of the molar value. Like-named read-outs stand apart in the source and are kept apart here.

Tests used:
VIM-1 = VIM-1 (Pseudomonas aeruginosa (strain ATCC 15692 / DSM 22644 / CIP 104116 / JCM 14847 / LMG 12228 / 1C / PRS 101 / PAO1), UniProt A0A0F7KYQ8); assay: biochemical; conditions: CCF2-FA substrate, 30 pM enzyme, 2 hours at 25° C.
How it was run: (§1)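 Class B activity is measured in the presence of compound by fluorescence with CCF2-FA after a 2-hour incubation at 25° C. IC50 is taken from a 4-parameter fit of semi-logarithmic dose-response data.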

[1] = test system: Pseudomonas aeruginosa efflux− (MB9799), IMP-1; type: cell-based; conditions: concentration restoring susceptibility to imipenem at 2 μg/mL in the presence of a class A, C, D serine β-lactamase inhibitor closely related to relebactam
How it was run: (§2)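 Microbroth MIC tests in PAO1-background strains with fixed imipenem and/or ceftazidime, usually at the CLSI breakpoint, plus fixed class A/C β-lactamase inhibitor against AmpC. MBL inhibitor titrated; concentration restoring susceptibility recorded and compared as fold difference between efflux+ MB9798 and efflux− MB9799.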

[2] = test system: Pseudomonas aeruginosa efflux+ (MB9798), IMP-1; type: cell-based; conditions: concentration restoring susceptibility to imipenem at 2 μg/mL in the presence of a class A, C, D serine β-lactamase inhibitor closely related to relebactam
How it was run: as §2

[3] = test system: Pseudomonas aeruginosa MB9798 vs MB9799; conditions: ratio MITC95 PA_9798/MITC95 PA_9799
How it was run: as §2

NDM-1 = NDM-1 (Klebsiella pneumoniae, UniProt C7C422); assay: biochemical; type: biochemical; conditions: fluorescence assay, CCF2-FA substrate, 1 pM enzyme, 2 hours at 25° C.; read-out: NDM-1 IC50
Sequence of NDM-1 (C7C422 whole entry, looked up, species assumed): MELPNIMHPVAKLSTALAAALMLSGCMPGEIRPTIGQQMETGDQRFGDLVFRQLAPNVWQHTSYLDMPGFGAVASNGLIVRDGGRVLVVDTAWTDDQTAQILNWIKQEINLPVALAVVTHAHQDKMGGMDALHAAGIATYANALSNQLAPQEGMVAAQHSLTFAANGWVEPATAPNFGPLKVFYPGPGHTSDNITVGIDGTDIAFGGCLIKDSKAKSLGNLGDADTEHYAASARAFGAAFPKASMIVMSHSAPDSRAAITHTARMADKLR
How it was run: as §1

IMP-1 = IMP-1 (Serratia marcescens, UniProt P52699); assay: biochemical; type: biochemical; conditions: fluorescence assay, CCF2-FA substrate, 2 pM enzyme, 2 hours at 25° C.; read-out: IMP-1 IC50
Sequence of IMP-1 (P52699 whole entry, looked up, species assumed): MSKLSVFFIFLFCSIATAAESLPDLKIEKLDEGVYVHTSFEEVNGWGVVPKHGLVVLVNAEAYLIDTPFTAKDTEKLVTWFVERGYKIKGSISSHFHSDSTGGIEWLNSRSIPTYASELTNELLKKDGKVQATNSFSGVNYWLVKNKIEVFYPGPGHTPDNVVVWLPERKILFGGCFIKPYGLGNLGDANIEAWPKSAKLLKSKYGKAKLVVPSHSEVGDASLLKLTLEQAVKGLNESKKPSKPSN
How it was run: as §1

[4] = test system: Escherichia coli expressing NDM-1 (CLB30005, CLB30016); type: cell-based; conditions: NDM-1 strain, with imipenem 1 μg/ml, 95% inhibition of growth
How it was run: (§3)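 Clinical isolates (E. coli NDM-1, S. marcescens IMP-1, K. pneumoniae VIM-1) were diluted 1:100 from saline suspension into 1.1×CAMHB and exposed to test compound with imipenem at 1 μg/ml. Plates were incubated at 35° C for 22 hours to 24 hours, and growth was read by absorbance.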

[5] = test system: Serratia marcescens expressing IMP-1 (CL5741); type: cell-based; conditions: IMP-1 strain CL5741, with imipenem 1 μg/ml, 95% inhibition of growth
How it was run: as §3

[6] = test system: Klebsiella pneumoniae expressing VIM-1 (IHMA599644); type: cell-based; conditions: VIM-1 strain IHMA599644, with imipenem 1 μg/ml, 95% inhibition of growth
How it was run: as §3

[7] = fluorescence assay, read-out: VIM-1 IC50

Row | Compound | pIC50 (VIM-1; VIM-1 IC50, fluorescence assay) | P. aeruginosa expressing IMP-1, efflux − (MB9799) MITC95 [1] [µM] | P. aeruginosa expressing IMP-1, efflux + (MB9798) MITC95 [2] [µM] | Efflux ratio [3] | pIC50 (NDM-1) | pIC50 (IMP-1) | Escherichia coli MITC95 [4] [µM] | Serratia marcescens MITC95 [5] [µM] | Klebsiella pneumoniae MITC95 [6] [µM] | pIC50 (VIM-1; [7])
1 | NCc1nc2c(-c3ccc(S(=O)(=O)N[C@H](CN)CO)c(S(N)(=O)=O)c3-c3nn[nH]n3)cccc2s1 [Example 363, (R)—N1-(1-amino-3-hydroxypropan-2-yl)-4-(2-(aminomethyl)benzo[d]thiazol-4-yl)-3-(2H-tetrazol-5-yl)benzene-1,2-disulfonamide] | 9.23 | 0.7813 | 3.125 | 4.00 | 9.19 | 8.44 | 3.125 | 1.563 | 3.125 | –
2 | NC[C@H](CO)NS(=O)(=O)c1ccc(-c2cccc(N)n2)c(-c2nn[nH]n2)c1S(N)(=O)=O [Example 364, (R)—N^1-(1-amino-3-hydroxypropan-2-yl)-4-(6-aminopyridin-2-yl)-3-(2H-tetrazol-5-yl)benzene-1,2-disulfonamide] | – | 1.563 | 3.125 | 2.00 | 8.49 | 7.84 | 3.125 | 3.125 | 6.25 | 8.49
3 | Nc1ccc(-c2ccc(S(=O)(=O)NC[C@@H](N)CO)c(S(N)(=O)=O)c2-c2nn[nH]n2)cn1 [Example 365, (R)—N1-(2-amino-3-hydroxypropyl)-4-(6-aminopyridin-3-yl)-3-(2H-tetrazol-5-yl) benzene-1,2-disulfonamide] | – | 0.7813 | 1.563 | 2.00 | 9.59 | 9.23 | 0.1953 | 0.3906 | 3.125 | 9.61
4 | Nc1nc2c(-c3ccc(S(=O)(=O)NC[C@]4(N)CCNC4)c(S(N)(=O)=O)c3-c3nn[nH]n3)cccc2s1 [Example 366, (S)-4-(2-aminobenzo[d]thiazol-4-yl)-N^1-((3-aminopyrrolidin-3-yl)methyl)-3-(2H-tetrazol-5-yl) benzene-1,2-disulfonamide] | 9.98 | 0.7813 | 0.7813 | 1.00 | 10.65 | 10.12 | 0.7813 | 1.563 | 3.125 | –
5 | Nc1nc2c(-c3ccc(S(=O)(=O)NC[C@@]4(N)CCNC4)c(S(N)(=O)=O)c3-c3nn[nH]n3)cccc2s1 [Example 367, (R)-4-(2-aminobenzo[d]thiazol-4-yl)-N1-((3-aminopyrrolidin-3-yl)methyl)-3-(2H-tetrazol-5-yl)benzene-1,2-disulfonamide] | 10.01 | 1.563 | 0.7813 | 0.50 | 10.71 | 10.12 | 1.563 | 1.563 | 3.125 | –
6 | Nc1ccc(-c2ccc(S(=O)(=O)NC[C@]3(N)CCNC3)c(S(N)(=O)=O)c2-c2nn[nH]n2)cn1 [Example 368, (S)-4-(6-aminopyridin-3-yl)-N1-((3-aminopyrrolidin-3-yl)methyl)-3-(2H -tetrazol-5-yl)benzene-1,2-disulfonamide] | 9.60 | 1.563 | 1.563 | 1.00 | 9.69 | 9.52 | 0.7813 | 0.7813 | 3.125 | –
7 | Nc1ccc(-c2ccc(S(=O)(=O)NC[C@@]3(N)CCNC3)c(S(N)(=O)=O)c2-c2nn[nH]n2)cn1 [Example 369, (R)-4-(6-aminopyridin-3-yl)-N1-((3-aminopyrrolidin-3-yl)methyl)-3-(2H -tetrazol-5-yl)benzene-1,2-disulfonamide] | 9.52 | 1.563 | 1.563 | 1.00 | 9.56 | 9.29 | 0.3906 | 0.7813 | 3.125 | –
8 | NC[C@H](N)CNS(=O)(=O)c1ccc(-c2cccc3[nH]c(N)nc23)c(-c2nn[nH]n2)c1S(N)(=O)=O [Example 370, (S)-4-(2-amino-1H-benzo[d]imidazol-4-yl)-N1-(2,3-diaminopropyl)-3-(2H-tetrazol-5-yl)benzene-1,2-disulfonamide] | 9.68 | 0.7813 | 0.7813 | 1.00 | 10.34 | 9.18 | 0.3906 | 1.172 | 1.563 | –
9 | NC[C@H](N)CNS(=O)(=O)c1ccc(-c2cccc3ccc(N)nc23)c(-c2nn[nH]n2)c1S(N)(=O)=O [Example 371, (S)-4-(2-aminoquinolin-8-yl)-N1-(2,3-diaminopropyl)-3-(2H-tetrazol-5-yl)benzene-1,2-disulfonamide] | 9.73 | 1.563 | 1.563 | 1.00 | 10.09 | 9.54 | 0.7813 | 3.125 | 3.125 | –
10 | NC[C@H](N)CNS(=O)(=O)c1ccc(-c2cnc(N)s2)c(-c2nn[nH]n2)c1S(N)(=O)=O [Example 372, (S)-4-(2-aminothiazol-5-yl)-N1-(2,3-diaminopropyl)-3-(2H-tetrazol-5-yl)benzene-1,2-disulfonamide] | – | 0.7813 | 1.563 | 2.00 | 9.24 | 8.89 | 1.563 | 1.563 | 3.125 | 9.04
11 | NC[C@H](N)CNS(=O)(=O)c1ccc(-c2cnc3cc[nH]c3c2)c(-c2nn[nH]n2)c1S(N)(=O)=O [Example 373, (S)-N1-(2,3-diaminopropyl)-4-(1H-pyrrolo[3,2-b]pyridin-6-yl)-3-(2H-tetrazol-5-yl)benzene-1,2-disulfonamide] | 9.92 | 1.563 | 1.563 | 1.00 | 10.29 | 9.31 | 0.3906 | 1.563 | 3.125 | –
12 | NC[C@@H](N)CNS(=O)(=O)c1ccc(-c2cccc3[nH]c(N)nc23)c(-c2nn[nH]n2)c1S(N)(=O)=O [Example 375, (R)-4-(2-amino-1H-benzo[d]imidazol-4-yl)-N1-(2,3-diaminopropyl)-3-(2H-tetrazol-5-yl)benzene-1,2-disulfonamide] | 9.63 | 1.563 | 1.563 | 1.00 | 10.23 | 9.22 | 0.3906 | 1.563 | 1.563 | –
13 | NC[C@@H](N)CNS(=O)(=O)c1ccc(-c2cccc3ccc(N)nc23)c(-c2nn[nH]n2)c1S(N)(=O)=O [Example 376, (R)-4-(2-aminoquinolin-8-yl)-N1-(2,3-diaminopropyl)-3-(2H-tetrazol-5-yl)benzene-1,2-disulfonamide] | 9.56 | 1.563 | 1.563 | 1.00 | 10.26 | 9.56 | 0.7813 | 3.125 | 3.125 | –
